Assay results published in ChEMBL document CHEMBL1201862, “PubChem BioAssay data set” (2004).
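Interpolation was linear, between the two tested concentrations surrounding the appropriate level; five concentrations were tested over 48 hours in 96-well plates. Here, GI50 denotes the concentration required for 50% inhibition of growth.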 Activity calls are given as the source filed them. No stated cut-off is given here; in the data, active = GI50 up to about 1.1 µM and inactive = higher.

What was measured:
Test in all cases: NCI anticancer screen, dose series, 48 h
OVCAR-8 = tested on: OVCAR-8
ACHN = tested on: ACHN
A549 = tested on: A549
SNB-75 = tested on: SNB-75
SNB-19 = tested on: SNB-19
SF-295 = tested on: SF-295
M14 = tested on: M14
RXF 393 = tested on: RXF 393
IGROV-1 = tested on: IGROV-1
HT-29 = tested on: HT-29
NCI-H460 = tested on: NCI-H460
HL-60 = tested on: HL-60
SW-620 = tested on: SW-620
SN12C = tested on: SN12C
HCT-116 = tested on: HCT-116
UACC-257 = tested on: UACC-257
OVCAR-4 = tested on: OVCAR-4
CAKI-1 = tested on: CAKI-1
HOP-92 = tested on: HOP-92

Compound | GI50 (OVCAR-8) | GI50 (ACHN) | GI50 (A549) | GI50 (SNB-75) | GI50 (SNB-19) | GI50 (SF-295) | GI50 (M14) | GI50 (RXF 393) | GI50 (IGROV-1) | GI50 (HT-29) | GI50 (NCI-H460) | GI50 (HL-60) | GI50 (SW-620) | GI50 (SN12C) | GI50 (HCT-116) | GI50 (UACC-257) | GI50 (OVCAR-4) | GI50 (CAKI-1) | GI50 (HOP-92)
CC[P+](C)(Cc1ccccc1)c1ccccc1 (stereo not given) | > 100 µM (inactive) | > 100 µM (inactive) | > 100 µM (inactive) | > 100 µM (inactive) | > 100 µM (inactive) | > 100 µM (inactive) | > 100 µM (inactive) | > 100 µM (inactive) | > 100 µM (inactive) | > 100 µM (inactive) | > 100 µM (inactive) | 90.8 µM (inactive) | > 100 µM (inactive) | > 100 µM (inactive) | > 100 µM (inactive) | > 100 µM (inactive) | > 100 µM (inactive) | – | –
CC(=O)c1cccc(C)c1C(=O)O | > 100 µM (inactive) | > 100 µM (inactive) | > 100 µM (inactive) | > 100 µM (inactive) | > 100 µM (inactive) | > 100 µM (inactive) | > 100 µM (inactive) | > 100 µM (inactive) | > 100 µM (inactive) | > 100 µM (inactive) | > 100 µM (inactive) | > 100 µM (inactive) | > 100 µM (inactive) | > 100 µM (inactive) | > 100 µM (inactive) | > 100 µM (inactive) | > 100 µM (inactive) | > 100 µM (inactive) | –
O=C1C=C(c2ccccc2)NC1(c1ccccc1)c1cc(-c2ccccc2)[nH]c1-c1ccccc1 (stereo not given) | > 100 µM (inactive) | > 100 µM (inactive) | > 100 µM (inactive) | > 100 µM (inactive) | > 100 µM (inactive) | > 100 µM (inactive) | > 100 µM (inactive) | 0.182 µM (active) | > 100 µM (inactive) | > 100 µM (inactive) | > 100 µM (inactive) | > 100 µM (inactive) | > 100 µM (inactive) | > 100 µM (inactive) | > 100 µM (inactive) | > 100 µM (inactive) | > 100 µM (inactive) | > 100 µM (inactive) | –
COc1ccc(S(=O)(=O)NNS(C)(=O)=O)cc1OC | > 100 µM (inactive) | > 100 µM (inactive) | > 100 µM (inactive) | > 100 µM (inactive) | > 100 µM (inactive) | > 100 µM (inactive) | > 100 µM (inactive) | 31.3 µM (inactive) | > 100 µM (inactive) | > 100 µM (inactive) | > 100 µM (inactive) | > 100 µM (inactive) | > 100 µM (inactive) | > 100 µM (inactive) | – | > 100 µM (inactive) | > 100 µM (inactive) | > 100 µM (inactive) | –
CCC1=C(CC)C1(C#N)[N+](=O)[O-] | > 100 µM (inactive) | > 100 µM (inactive) | > 100 µM (inactive) | – | > 100 µM (inactive) | > 100 µM (inactive) | > 100 µM (inactive) | – | > 100 µM (inactive) | > 100 µM (inactive) | > 100 µM (inactive) | > 100 µM (inactive) | > 100 µM (inactive) | > 100 µM (inactive) | > 100 µM (inactive) | > 100 µM (inactive) | > 100 µM (inactive) | > 100 µM (inactive) | –
O=C(CC/C(CC(=O)c1ccc(Cl)cc1)=N\O)Nc1cccc(Cl)c1 | > 100 µM (inactive) | > 100 µM (inactive) | > 100 µM (inactive) | 80.7 µM (inactive) | > 100 µM (inactive) | > 100 µM (inactive) | > 100 µM (inactive) | – | > 100 µM (inactive) | > 100 µM (inactive) | > 100 µM (inactive) | – | > 100 µM (inactive) | > 100 µM (inactive) | – | > 100 µM (inactive) | > 100 µM (inactive) | > 100 µM (inactive) | –
O=C1Cc2ccccc2N1/N=C\c1ccc([N+](=O)[O-])cc1 | > 100 µM (inactive) | > 100 µM (inactive) | > 100 µM (inactive) | 54.8 µM (inactive) | > 100 µM (inactive) | > 100 µM (inactive) | > 100 µM (inactive) | – | > 100 µM (inactive) | > 100 µM (inactive) | > 100 µM (inactive) | > 100 µM (inactive) | > 100 µM (inactive) | – | > 100 µM (inactive) | > 100 µM (inactive) | > 100 µM (inactive) | > 100 µM (inactive) | > 100 µM (inactive)
CC(C)c1ccc(Cc2ccc(C(C)C)c(NC(=O)C(=O)Cc3cnc4ccccc4n3)c2C(C)C)c(C(C)C)c1NC(=O)C(=O)Cc1cnc2ccccc2n1 | > 100 µM (inactive) | > 100 µM (inactive) | > 100 µM (inactive) | – | > 100 µM (inactive) | > 100 µM (inactive) | > 100 µM (inactive) | – | > 100 µM (inactive) | – | > 100 µM (inactive) | > 100 µM (inactive) | > 100 µM (inactive) | – | > 100 µM (inactive) | > 100 µM (inactive) | > 100 µM (inactive) | 98.9 µM (inactive) | 12.4 µM (inactive)
CC(C)N(C(=O)C12C3C4C1C1C2C3C41C(=O)N(C(C)C)C(C)C)C(C)C (stereo not given) | > 50 µM (inactive) | > 50 µM (inactive) | > 50 µM (inactive) | > 50 µM (inactive) | > 50 µM (inactive) | > 50 µM (inactive) | > 50 µM (inactive) | – | > 50 µM (inactive) | > 50 µM (inactive) | > 50 µM (inactive) | > 50 µM (inactive) | > 50 µM (inactive) | > 50 µM (inactive) | > 50 µM (inactive) | > 50 µM (inactive) | > 50 µM (inactive) | > 50 µM (inactive) | –
CC1(C)Cc2c(oc3ncnc(N)c23)CS1 | > 100 µM (inactive) | > 100 µM (inactive) | > 100 µM (inactive) | > 100 µM (inactive) | > 100 µM (inactive) | > 100 µM (inactive) | > 100 µM (inactive) | – | > 100 µM (inactive) | > 100 µM (inactive) | > 100 µM (inactive) | – | > 100 µM (inactive) | > 100 µM (inactive) | > 100 µM (inactive) | > 100 µM (inactive) | > 100 µM (inactive) | > 100 µM (inactive) | –
Oc1nnc2c(-c3ccccc3)n[nH]c2n1 | > 100 µM (inactive) | > 100 µM (inactive) | 14.2 µM (inactive) | – | > 100 µM (inactive) | > 100 µM (inactive) | > 100 µM (inactive) | > 100 µM (inactive) | 94.4 µM (inactive) | > 100 µM (inactive) | > 100 µM (inactive) | > 100 µM (inactive) | > 100 µM (inactive) | > 100 µM (inactive) | > 100 µM (inactive) | > 100 µM (inactive) | > 100 µM (inactive) | 45.5 µM (inactive) | –
OC(c1ccccc1Br)(c1ccccc1Br)C(F)(F)F | 39.4 µM (inactive) | 20.1 µM (inactive) | 34.1 µM (inactive) | 33 µM (inactive) | > 10 µM (inactive) | 21.1 µM (inactive) | 34.7 µM (inactive) | 19.6 µM (inactive) | 40.4 µM (inactive) | 14.7 µM (inactive) | 27.7 µM (inactive) | – | 19.4 µM (inactive) | 19.1 µM (inactive) | 19.7 µM (inactive) | 37.8 µM (inactive) | 29.2 µM (inactive) | 48.1 µM (inactive) | –
OCC(O)C(OC1OC(CO)C(O)C(O)C1O)c1nn(-c2ccc(Cl)cc2)c2nc3cc(Cl)ccc3nc12 (stereo not given) | > 100 µM (inactive) | > 100 µM (inactive) | – | > 100 µM (inactive) | > 100 µM (inactive) | > 100 µM (inactive) | > 100 µM (inactive) | > 100 µM (inactive) | – | > 100 µM (inactive) | > 100 µM (inactive) | – | – | > 100 µM (inactive) | > 100 µM (inactive) | > 100 µM (inactive) | > 100 µM (inactive) | – | –
O=C(CCC(=O)Nc1cccc(Cl)c1)CC(=O)c1ccc(F)cc1 | > 100 µM (inactive) | > 100 µM (inactive) | > 100 µM (inactive) | > 100 µM (inactive) | > 100 µM (inactive) | 23.2 µM (inactive) | > 100 µM (inactive) | – | – | > 100 µM (inactive) | > 100 µM (inactive) | > 100 µM (inactive) | > 100 µM (inactive) | > 100 µM (inactive) | > 100 µM (inactive) | > 100 µM (inactive) | > 100 µM (inactive) | > 100 µM (inactive) | > 100 µM (inactive)
CCOC(C)OCC#CCCBr (stereo not given) | > 100 µM (inactive) | > 100 µM (inactive) | > 100 µM (inactive) | 55.3 µM (inactive) | > 100 µM (inactive) | > 100 µM (inactive) | > 100 µM (inactive) | > 100 µM (inactive) | > 100 µM (inactive) | > 100 µM (inactive) | > 100 µM (inactive) | 80.5 µM (inactive) | > 100 µM (inactive) | > 100 µM (inactive) | > 100 µM (inactive) | > 100 µM (inactive) | > 100 µM (inactive) | > 100 µM (inactive) | –
CC(=O)O[C@]12CCCCCC1C1(O)C(O)CCCCC12 (stereo not given in full) | > 100 µM (inactive) | > 100 µM (inactive) | > 100 µM (inactive) | > 100 µM (inactive) | > 100 µM (inactive) | > 100 µM (inactive) | > 100 µM (inactive) | > 100 µM (inactive) | – | > 100 µM (inactive) | > 100 µM (inactive) | > 100 µM (inactive) | > 100 µM (inactive) | > 100 µM (inactive) | – | > 100 µM (inactive) | > 100 µM (inactive) | – | –
CCOC(=O)[C@]12C3C=CC(C3)C1C(=O)C1OC12 (stereo not given in full) | > 100 µM (inactive) | > 100 µM (inactive) | > 100 µM (inactive) | 81.5 µM (inactive) | > 100 µM (inactive) | > 100 µM (inactive) | – | – | > 100 µM (inactive) | > 100 µM (inactive) | > 100 µM (inactive) | > 100 µM (inactive) | > 100 µM (inactive) | > 100 µM (inactive) | > 100 µM (inactive) | > 100 µM (inactive) | > 100 µM (inactive) | > 100 µM (inactive) | 0.109 µM (active)
